We go through ten compounds from patent publication US7842698B2, “Pyridine methylene azolidinones and use thereof phosphoinositide inhibitors” (Merck Serono S.A., priority 2004, dated 2010).

The target in series [1] is Human recombinant GST-PI3Kγ (Homo sapiens, UniProt P48736). The experiment in a line: High throughput PI3K lipid kinase assay (scintillation proximity assay, neomycin-coated SPA beads). Type of series: biochemical. To be noted: [33P]γ-ATP, 180 minutes at room temperature. The text has this: a) High Throughput PI3K Lipid Kinase Assay (Binding Assay):
The efficacy of compounds of the invention in inhibiting the PI3K induced-lipid phosphorylation may be tested in the following binding assay.
The assay combines the scintillation proximity assay technology (SPA, Amersham) with the capacity of neomycin (a polycationic antibiotic) to bind phospholipids with high affinity and specificity. The Scintillation Proximity Assay is based on the properties of weakly emitting isotopes (such as ^3H, ^125I, ^33P). Coating SPA beads with neomycin allows the detection of phosphorylated lipid substrates after incubation with recombinant PI3K and radioactive ATP in the same well, by capturing the radioactive phospholipids to the SPA beads through their specific binding to neomycin.
To a 384 wells MTP containing 5 μl of the test compound of Formula (I) (solubilized in 6% DMSO; to yield a concentration of 100, 30, 10, 3, 1, 0.3, 0.1, 0.03, 0.01, 0.001 μM of the test compound), the following assay components are added. 1) 5 μl (58 ng) of Human recombinant GST-PI3Kγ (in Hepes 40 mM, pH 7.4, DTT 1 mM and ethyleneglycol 5%) 2) 10 μl of lipid micelles and 3) 10 μl of Kinase buffer ([^33P]γ-ATP 45 μM/60 n Ci, MgCl2 30 mM, DTT 1 mM, β-Glycerophosphate 1 mM, Na3VO4 100 μM, Na Cholate 0.3%, in Hepes 40 mM, pH 7.4). After incubation at room temperature for 180 minutes, with gentle agitation, the reaction is stopped by addition of 60 μl of a solution containing 100 μg of neomycin-coated PVT SPA beads in PBS containing ATP 10 mM and EDTA 5 mM. The assay is further incubated at room temperature for 60 minutes with gentle agitation to allow binding of phospholipids to neomycin-SPA beads. After precipitation of the neomycin-coated PVT SPA beads for 5 minutes at 1500× g, radioactive PtdIns(3)P is quantified by scintillation counting in a Wallac MicroBeta™ plate counter.
The values indicated in Table I below refer to the IC50 (nM) with respect to PI3Kγ, i.e. the amount necessary to achieve 50% inhibition of said target. Said values show a considerable inhibitory potency of thiazole compounds with regard to PI3Kγ.
In general terms: SPA uses beads or plates that emit light when radiolabelled molecules are held near them.

For series [2], the system named is Akt/PKB phosphorylation in Raw 264-7 macrophages. As to the kind of experiment: Cell based ELISA to monitor PI3K inhibition: Akt/PKB phosphorylation in macrophages after stimulation with Complement 5a. To be noted: Mus musculus, RAW264.7, 50 nM Complement 5a for 5 minutes, inhibitors pretreated 20 minutes, phospho Serine 473 Akt, read-out: Cell Assay (P-Akt, Elisa) IC50. The protocol:
b) Cell Based ELISA to Monitor PI3K Inhibition:
The efficacy of compounds of the invention in inhibiting the PI3K induced Akt/PKB phosphorylation may be tested in the following cell based assay.
Measurement of Akt/PKB phosphorylation in macrophages after stimulation with Complement 5a: Raw 264: Raw 264-7 macrophages (cultured in DMEM-F12 medium containing 10% Fetal Calf serum and antibiotics) are plated at 20′000 cells/well in a 96 MTP 24 h before cell stimulation. Previous to the stimulation with 50 nM of Complement 5a during 5 minutes, Cells are serum starved for 2 h, and pretreated with inhibitors for 20 minutes. After stimulation cells are fixed in 4% formaldehyde for 20 minutes and washed 3 times in PBS containing 1% Triton X-100 (PBS/Triton). Endogenous peroxidase is blocked by a 20 minutes incubation in 0.6% H2O2 and 0.1% Sodium Azide in PBS/Triton and washed 3 times in PBS/Triton. Cells are then blocked by 60 minutes incubation with 10% fetal calf serum in PBS/Triton. Next, phosphorylated Akt/PKB is detected by an overnight incubation at 4° C. with first antibody (anti phospho Serine 473 Akt IHC, Cell Signaling) diluted 800-fold in PBS/Triton, containing 5% bovine serum albumin (BSA). […] The reaction is stopped by addition of 50 μl of 1 M SO4H2 and absorbance is read at 450 nm. […]

The next series has as its system Class I PI3-kinases. The settings on record: Fruman et al., 1998, cited from earlier work.
Another series concerns phospholipases. To be noted: cited from earlier work.

Where a name gives a salt, the structure may show the parent alone. Read-outs that look alike come from different tables or passages of the source.

Sequence of Human recombinant GST-PI3Kγ (P48736 whole entry): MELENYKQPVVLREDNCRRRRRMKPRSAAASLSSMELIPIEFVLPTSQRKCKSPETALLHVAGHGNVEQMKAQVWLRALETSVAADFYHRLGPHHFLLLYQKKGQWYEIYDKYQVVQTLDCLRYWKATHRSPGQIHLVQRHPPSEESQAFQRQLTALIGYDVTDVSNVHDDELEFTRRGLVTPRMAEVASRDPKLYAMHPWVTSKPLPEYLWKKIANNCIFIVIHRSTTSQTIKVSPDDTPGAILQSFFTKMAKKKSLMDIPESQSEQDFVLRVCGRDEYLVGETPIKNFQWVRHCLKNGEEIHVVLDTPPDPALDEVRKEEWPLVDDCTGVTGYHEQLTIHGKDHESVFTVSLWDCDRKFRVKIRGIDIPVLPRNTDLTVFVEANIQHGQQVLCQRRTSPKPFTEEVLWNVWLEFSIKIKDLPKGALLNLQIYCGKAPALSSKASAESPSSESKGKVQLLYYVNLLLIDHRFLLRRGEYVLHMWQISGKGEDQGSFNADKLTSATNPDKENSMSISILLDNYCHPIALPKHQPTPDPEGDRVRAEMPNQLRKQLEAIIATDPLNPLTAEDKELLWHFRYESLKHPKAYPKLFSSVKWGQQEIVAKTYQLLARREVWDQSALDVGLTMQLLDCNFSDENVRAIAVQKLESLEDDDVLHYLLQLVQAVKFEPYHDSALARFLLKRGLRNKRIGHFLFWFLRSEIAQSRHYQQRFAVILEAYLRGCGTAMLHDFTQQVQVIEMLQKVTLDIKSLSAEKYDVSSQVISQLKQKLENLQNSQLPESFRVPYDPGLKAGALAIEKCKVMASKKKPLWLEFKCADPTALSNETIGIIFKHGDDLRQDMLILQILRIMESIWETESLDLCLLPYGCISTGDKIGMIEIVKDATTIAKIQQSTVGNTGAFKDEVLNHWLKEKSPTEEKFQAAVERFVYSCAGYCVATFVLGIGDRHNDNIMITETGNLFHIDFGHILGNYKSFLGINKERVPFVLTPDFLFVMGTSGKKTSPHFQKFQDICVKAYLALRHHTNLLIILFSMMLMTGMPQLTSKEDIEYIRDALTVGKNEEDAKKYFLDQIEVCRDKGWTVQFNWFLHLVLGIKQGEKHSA

What is called melting point is the temperature of the solid-liquid transition. Regarding `O=C1NC(=O)/C(=C/c2ccc3ncnc(N4CCCCC4)c3n2)S1` (as salt: potassium) [Example 1, (5Z)-5-{[4-(1-piperidinyl)pyrido[3,2-d]pyrimidin-6-yl]methylene}-1,3-thiazolidine-2,4-dione potassium salt], the melting point came out at 319 °C.
One may read the IC50 as the concentration that gives 50% inhibition. In the case of `O=C1NC(=O)/C(=C/c2ccc3ncnc(N4CCCCC4)c3n2)S1` [Example 1, (5Z)-5-{[4-(1-piperidinyl)pyrido[3,2-d]pyrimidin-6-yl]methylene}-1,3-thiazolidine-2,4-dione potassium salt], the 50% inhibitory concentration (IC50) in series [1] is 4 nM; in series [2], less than 10 nM.
In the same order, the values of `O=C1NC(=O)/C(=C/c2ccc3ncnc(N4CCC(C(F)(F)F)CC4)c3n2)S1` [Example 3, (5Z)-5-({4-[4-(trifluoromethyl)-1-piperidinyl]pyrido[3,2-d]pyrimidin-6-yl}methylene)-1,3-thiazolidine-2,4-dione potassium salt] are 6 nM and less than 10 nM.
On to `O=C1NC(=O)/C(=C/c2ccc3nccnc3n2)S1` [Example 4, 5-Pyrido[2,3-b]pyrazin-6-ylmethylene-thiazolidine-2,4-dione], for which the IC50 in series [1] was 20 nM.
As to `O=C1NC(=O)/C(=C/c2ccc3occc3n2)S1` [Example 5, 5-Furo[3,2-b]pyridin-5-ylmethylene-thiazolidine-2,4-dione], the half-maximal inhibitory concentration (IC50) in series [1] was found to be 35 nM.
Consider `O=C1NC(=S)SC1=Cc1ccc2ncnc(N3CCC(F)CC3)c2n1` [Example 6, 5-[4-(4-Fluoro-piperidin-1-yl)-pyrido[3,2-d]pyrimidin-6-ylmethylene]-2-thioxo-thiazolidin-4-one], for which the 50% inhibitory concentration (IC50) in series [1] was found to be 2 nM.
Same read-out and setting: the value for `COc1cc(OC)cc(-n2cnc3ccc(/C=C4\SC(=O)NC4=O)nc32)c1` [Example 8, (5Z)-5-{[3-(3,5-dimethoxyphenyl)-3H-imidazo[4,5-b]pyridin-5-yl]methylene}-1,3-thiazolidine-2,4-dione] was 10 nM.
On the same count and under the same terms, to `CN(C)CCCC(=O)N1CCc2cc(-n3cnc4ccc(/C=C5\SC(=O)NC5=O)nc43)ccc21` [Example 12, (5Z)-5-[(3-{1-[4-(dimethylamino)butanoyl]-2,3-dihydro-1H-indol-5-yl}-3H-imidazo[4,5-b]pyridin-5-yl)methylene]-1,3-thiazolidine-2,4-dione] belongs 7 nM.
As to `O=c1cc(N2CCOCC2)oc2c(-c3ccccc3)cccc12` [LY294002], in the series with Class I PI3-kinases (LY294002, read-out: IC50 against each of these PI3-kinases (Class I)), the IC50 is 15000 to 20000 nM. Besides, the “inhibitory activity on phospholipases” value with phospholipases was “some inhibitory activity”.
In the case of `COC[C@H]1OC(=O)c2coc3c2[C@@]1(C)C1=C(C3=O)[C@@H]2CCC(=O)[C@@]2(C)C[C@H]1OC(C)=O` [wortmannin], the half-maximal inhibitory concentration (IC50) in the series with Class I PI3-kinases (wortmannin, read-out: IC50 against each of the various Class I PI3-kinases) was 1 to 10 nM.
